Read-outs that look alike come from different tables or passages of the source. Marks after values point to notes of the source that are not given here.
Key:
[1] = Stability titration (pEu) by competitive batch titration using DTPA; format: physicochemical; details: for pEu: competitive batch titration using DTPA in 0.1M TRIS pH = 7.4 and 0.1M KCl; for pEu value as compared to DTPA / thermodynamic stability in aqueous solution: in words; for thermodynamic stability in aqueous solution: pH=7.4
Experimental: Stability Titrations. The general procedure used to determine the pEu values of ligands was adapted from an already described study using Gd and are similar to that already reported for other complexes. Different volumes of a standardized DTPA stock solution were added to solutions of constant ligand, metal, and electrolyte concentrations. Concentrations of complexed ligand in each solution were determined by subtracting the remaining luminescence intensity after addition of DTPA to the initial luminescence intensity at identical pH and those concentrations were used as references for the analysis. Stability of compounds towards mM concentrations of EDTA and divalent cations will be assessed by incubation of the proposed molecules at nM concentration at room temperature in aqueous solutions of test ions. Time Resolved Fluorescent signal will be assessed at the outset of experiment and monitored over a minimum of 24 hours to determine signal change.

[2] = Luminescence lifetimes (TRIS buffer, deuterated water, 77K) and inner sphere water number q; details: for τ^D / τ (77K): first component; for q / q, second species: inner sphere water molecules; for q: first species
Experimental: Fluorescent decay signals can be acquired using an IBH DataStation Hub photon counting module and data analysis performed using the commercially available DAS 6 decay analysis software package from HORIBA Jobin Yvon IBH. Goodness of fit will be assessed by minimizing the reduced chi squared function, χ2, and a visual inspection of the weighted residuals. Each trace will use at least 10,000 points and the reported lifetime values result from at least three independent measurements.
In addition to the steady state emission spectra, the luminescence quantum yields and luminescence lifetimes of the Eu(III) complexes were also measured in aqueous solution with 0.1 M TRIS buffer pH=7.4 and in deuterated solution to estimate the number of inner sphere water molecule (i.e. q) using the improved Horrock's equations.
Luminescence lifetimes were also determined at 77K, in a solid matrix (Table 5), which have allowed us to determine whether back energy transfer between the donor triplet excited state and the acceptor manifold excited state of the lanthanide is present, or alternately whether quenching via low lying LMCT state occurs.

[3] = Luminescence quantum yield, emission and brightness in aqueous 0.1 M TRIS buffer; format: physicochemical; details: for øTot: 0.1M TRIS buffer pH = 7.4; for Brightness: at maximum absorption, product of quantum yield and molar absorption coefficient, 0.1 M TRIS pH = 7.4; for overall quantum yield (in words): related to inner-sphere coordinated water
Experimental: Quantum Yield. Quantum yield will be measured using established methods. Fluorescence quantum yield Q are measured in diluted solution with an optical density lower than 0.1 using the following equation Qx/Qr=[Ar(λr)/Ax(λx)][nx^2/nr^2][Dx/Dr] were A is the absorbance at the excitation wavelength (λ), n the refractive index and D the integrated luminescence intensity. Subscripts “r” and “x” stand for reference and sample, respectively. References will be a quinine bisulfate in 1N sulfuric acid in aqueous solution (Qt=0.546)^1 and Ru(bpy)3 2C1 complexes in water solution (Qr=0.028)^2 for all complexes. A plot of integrated emission intensity (i.e. Dr) versus absorbance (i.e. Ar(λr)) yields a linear plot with a slope which can be equated to the reference quantum yield Qr. By analogy, for the unknown sample, a plot of integrated emission intensity (i.e. Dx) versus absorbance (i.e. Ax(λx)) yields a linear plot and Qx can then be evaluated. A minimum of at least two independent measurements will be averaged to derive a reliable value.

[4] = Triplet excited state energy from phosphorescence of Gd complexes at 77K; format: physicochemical; details: solid matrix (methanol/ethanol 1/4), using the Gd complexes
Experimental: Estimation of the energies of the ligand based triplet excited state were determined using the Gd(III) complexes. Gadolinium was chosen because it is a 4f^7 lanthanide cation having a similar 4f electronic configuration and size as the europium cation (4f^6), but lacking an accessible metal based low energy electronic excited state. At room temperature, only a broad weak emission centered between 380-400 nm can be seen for the Gd(III) complexes. […] At 77K, in solid matrix, an emission band at approx. 500 nm can be seen (FIG. 8). This emission, red-shifted compared to the singlet excited state, can be assigned to phosphorescence from the triplet excited state, lower in energy than the singlet excited state observed at room temperature. Selective time gated phosphorescence spectra (delay 0.1 ms) of the gadolinium complexes at 77K are depicted in FIG. 8.

[5] = UV/visible absorption spectroscopy of Eu(III) complexes in TRIS buffer; format: physicochemical; details: for λ: absorption maximum
Source text: Extinction Coefficient. A series of solutions of varied concentrations will be prepared from the solids based on mass and purity. The absorbance of each of these solutions at both 340 nm and at the appropriate acceptor wavelength will be measured and plotted according to Beer's Law (A=εcL where A is absorbance, ε is the extinction coefficient in M^−1 cm^−1, c is concentration, and L is path length in cm) with the fitted linear regression slope equal to […] on a plot of A as a function of C.
Each of the spectra have absorption maxima around 335-340 nm (FIG. 2). Those bands are composed of two electronic transitions; at higher energy, a purely π-π* transition and, at slightly lower energy (around ca. 320 nm), a π-π* transition with some n-π* character, as evidenced previously from TD-DFT calculations. […] This interaction gives maxima blue-shifting from 341 nm for [Eu(H(2,2)-1,2-HOPO)]^0 to 334 nm for [Eu(H(17O5,2)-1,2-HOPO)]^0 (as low as 332 nm for)[Eu(5LIN^Me-1,2HOPO)2]^0).

[6] = cited from earlier work
[7] = cited from earlier work; remark: listed apart in the source
[8] = cited from earlier work; for λ: absorption maximum
[9] = Calculation of Eu luminescence parameters (radiative lifetime, rate constants, efficiencies); format: physicochemical; details: for η^Eu: efficiency of metal centred luminescence; for knr: non-radiative rate constant; for τrad: pure radiative luminescence lifetime, aqueous TRIS pH = 7.4; for kr: radiative rate constant; for η^sens: sensitization efficiency; for metal centred efficiency: TRIS buffer
Experimental: In this equation, the ηISC ηET term is termed the sensitization efficiency, ηsens (ηsens=ηISC ηET). All the luminescence parameters τR (the pure radiative luminescence lifetime), kR and knR (the radiative and non-radiative constant rate) can be deduced. These parameters were calculated for five of the octadentate complexes and the model complex that present only one species in solution at pH=7.4 and are reported in Table 6.

[10] = cited from earlier work; remark: listed apart in the source
[11] = solid matrix at 77K (methanol/ethanol 1/4)
[12] = extinction coefficient, in M-1·cm-1
[13] = listed as [Eu(5LIN^Me-1,2HOPO)2]^0
[14] = listed as [Eu(5LIN^Me-1,2-HOPO)2]
[15] = TRIS buffer pH = 7.4, listed as [Eu(5LIN^Me-1,2HOPO)2]^0
[16] = aqueous TRIS pH = 7.4, complexes with only one species

SMILES: O=C(NCCN(CCNC(=O)c1cccc(=O)n1O)CCOCCN(CCNC(=O)c1cccc(=O)n1O)CCNC(=O)c1cccc(=O)n1O)c1cccc(=O)n1O.[Eu] [Eu(H5-1)]
- pEu [1]: 19.2
- pEu value as compared to DTPA [1]: increased
- τ^D ([2]; deuterated solution): 825; μs
- τ^D, second component ([2]; deuterated solution, second component): 462 μs
- τ^D ([2]; deuterated water): 825 μs
- τ^D, second component ([2]; deuterated water, second component): 438 μs
- τ ([2]; first (longer) component): 651 μs
- q ([2]; improved Horrock's equations): 0;
- q [2]: 0
- q, second species [2]: 0.8
- q, second species ([2]; listed as [Eu(H(5O,2)-1,2HOPO)]^0): 1.1
- τ, second component ([2]; second (shorter) component): 304 μs
- τ (77K) [2, 11]: 823; μs
- τ (77K), second component ([2]; solid matrix at 77K (methanol/ethanol 1/4), second component): 608 μs
- øTot [3]: 0.067
- ϕTot ([3]; aqueous quantum yield): 0.067
- Brightness [3]: 1065 M⁻¹ cm⁻¹
- overall quantum yield (in words) [3]: low quantum yields
- T0-0 (triplet excited state energy) [4]: 22,000 cm^−1
- ε ([5]; TRIS buffer pH = 7.4): 15,900 M^−1 · cm^−1
- λ^maxabs ([5]; TRIS buffer pH = 7.4): 337 nm
- λ [5]: 337 nm
- ε [5, 12]: 15,900

SMILES: O=C(NCCN(CCCCN(CCNC(=O)c1cccc(=O)n1O)CCNC(=O)c1cccc(=O)n1O)CCNC(=O)c1cccc(=O)n1O)c1cccc(=O)n1O [Eu(5LiN^Me), reference compound]
- pEu ([6]; competitive batch titration using DTPA in 0.1M TRIS pH = 7.4 and 0.1M KCl): 17.3
- pEu ([6]; see reference [47], DTPA competition, 0.1M TRIS pH = 7.4, 0.1M KCl): 17.3
- τ ([2]; aqueous TRIS pH = 7.4, listed as [Eu(5LIN^Me-1,2-HOPO)2]): 728 μs
- τ^D ([2]; deuterated solution, listed as [Eu(5LIN^Me-1,2HOPO)2]^0): 1000^b μs
- q ([2]; improved Horrock's equations, listed as [Eu(5LIN^Me-1,2HOPO)2]^0): 0.1^b
- τ (77K) ([2]; solid matrix at 77K (methanol/ethanol 1/4), listed as [Eu(5LIN^Me-1,2HOPO)2]^0): 860 μs
- τ (D2O) ([7]; D2O, first component where two are printed): 1000 μs
- τ (H2O) ([7]; H2O, first (longer) component): 728 μs
- q ([7]; number of inner sphere water molecules, first species): 0.1
- q ([7]; see reference [47]): 0.1
- τ ([7]; see reference [47]): 728 μs
- τ^D ([7]; see reference [47]): 1000 μs
- øTot [3, 13]: 0.173^b
- ϕTot ([3]; aqueous TRIS pH = 7.4, complexes with only one species, listed as [Eu(5LIN^Me-1,2-HOPO)2]): 0.173
- Brightness ([3]; listed as [Eu(5LIN^Me-1,2-HOPO)2]^0): 3400 M⁻¹ cm⁻¹
- Brightness [3, 13]: 3120 M⁻¹ cm⁻¹
- λ [8]: 332 nm
- λ ([8]; see reference [47]): 332 nm
- ε ([8]; extinction coefficient): 18,750 M^1 cm^−1
- ε ([8]; see reference [47], in M-1·cm-1 (unit assumed)): 18,750
- η^Eu [9, 14]: 0.412
- knr [9, 14]: 807 s⁻¹
- τrad [9, 14]: 1770 μs
- kr [9, 14]: 566 s⁻¹
- η^sens [9, 14]: 0.420
- T0-0 (triplet excited state energy) [4, 13]: 22,010 cm^−1
- ε [5, 15]: 18,050 M^−1 · cm^−1
- λ^maxabs [5, 15]: 332 nm
- ϕEu ([10]; quantum yield): 0.17
- ϕTot ([10]; see reference [47]): 0.17

SMILES: O=C(NCCN(CCNC(=O)c1cccc(=O)n1O)CCOCCOCCN(CCNC(=O)c1cccc(=O)n1O)CCNC(=O)c1cccc(=O)n1O)c1cccc(=O)n1O [Eu(H8-2)]
- pEu [1]: 20.4
- pEu value as compared to DTPA [1]: increased
- τ ([2]; aqueous TRIS pH = 7.4): 697 μs
- τ^D ([2]; deuterated solution): 913 μs
- τ^D ([2]; deuterated water): 913 μs
- τ ([2]; first (longer) component): 697 μs
- q ([2]; improved Horrock's equations): 0
- τ (77K) [2, 11]: 748 μs
- øTot [3]: 0.112
- ϕTot [3, 16]: 0.112
- ϕTot ([3]; aqueous quantum yield): 0.112
- Brightness [3]: 1720 M⁻¹ cm⁻¹
- overall quantum yield (in words) [3]: comparatively high quantum yields
- sensitization process efficiency [9]: 28.4%
- η^Eu [9]: 0.395
- knr [9]: 869 s⁻¹
- τrad [9]: 1770 μs
- kr [9]: 566 s⁻¹
- η^sens [9]: 0.284
- T0-0 (triplet excited state energy) [4]: 22,320 cm^−1
- ε ([5]; TRIS buffer pH = 7.4): 15,350 M^−1 · cm^−1
- λ^maxabs ([5]; TRIS buffer pH = 7.4): 336 nm
- λ [5]: 336 nm
- ε [5, 12]: 15,350

SMILES: O=C(NCCN(CCNC(=O)c1cccc(=O)n1O)CCOCCOCCOCCOCCN(CCNC(=O)c1cccc(=O)n1O)CCNC(=O)c1cccc(=O)n1O)c1cccc(=O)n1O.[Eu] [[Eu(H(14O4,2)-1,2HOPO)]^0]
- thermodynamic stability in aqueous solution [1]: high thermodynamic stabilities
- τ ([2]; aqueous TRIS pH = 7.4): 700 μs
- τ^D ([2]; deuterated solution): 961 μs
- q ([2]; improved Horrock's equations): 0.1
- τ (77K) [2, 11]: 819 μs
- øTot [3]: 0.192
- ϕTot [3, 16]: 0.192
- Brightness [3]: 2920 M⁻¹ cm⁻¹
- metal centred efficiency [9]: around 50%
- η^Eu [9]: 0.528
- knr [9]: 674 s⁻¹
- τrad [9]: 1326 μs
- kr [9]: 754 s⁻¹
- η^sens [9]: 0.364
- T0-0 (triplet excited state energy) [4]: 22,020 cm^−1
- ε ([5]; TRIS buffer pH = 7.4): 15,200 M^−1 · cm^−1
- λ^maxabs ([5]; TRIS buffer pH = 7.4): 336 nm

SMILES: O=C(NCCN(CCNC(=O)c1cccc(=O)n1O)CCOCCOCCOCCOCCOCCN(CCNC(=O)c1cccc(=O)n1O)CCNC(=O)c1cccc(=O)n1O)c1cccc(=O)n1O.[Eu] [[Eu(H(17O5,2)-1,2HOPO)]^0]
- thermodynamic stability in aqueous solution [1]: high thermodynamic stabilities
- τ ([2]; aqueous TRIS pH = 7.4): 704 μs
- τ^D ([2]; deuterated solution): 962 μs
- q ([2]; improved Horrock's equations): 0.1
- τ (77K) [2, 11]: 826 μs
- øTot [3]: 0.196
- øTot ([3]; listed as [Eu(H(17O5,2)-1,2-HOPO)]^0): 0.197
- ϕTot [3, 16]: 0.196
- Brightness [3]: 2940 M⁻¹ cm⁻¹
- metal centred efficiency [9]: around 50%
- η^Eu [9]: 0.522
- knr [9]: 679 s⁻¹
- τrad [9]: 1348 μs
- kr [9]: 742 s⁻¹
- η^sens [9]: 0.375
- T0-0 (triplet excited state energy) [4]: 21,690 cm^−1
- ε ([5]; TRIS buffer pH = 7.4): 15,000 M^−1 · cm^−1
- λ^maxabs ([5]; TRIS buffer pH = 7.4): 336 nm
- λ^maxabs ([5]; TRIS buffer pH = 7.4, listed as [Eu(H(17O5,2)-1,2-HOPO)]^0): 334 nm

Source: patent publication US10352938B2, “Macrocyclic HOPO chelators” (LUMIPHORE, INC., priority 2009, dated 2019)
